In US11590117B2, “Treatment of a hematologic malignancy with 2-(4-chlorophenyl)-n-((2-(2,6-dioxopiperidin-3-yl)-1-oxoisoindolin-5-yl)methyl)-2,2-difluoroacetamide” (priority 2016, dated 2023):
Where two headings read alike, the source gives them in different places.

Experiments:
AML cell lines = experiment: IncuCyte Kinetic Caspase-3/7 Apoptosis Assay, panel of twenty AML cell lines; assay type: cell-based; details: Homo sapiens
Excerpt: Methods. Acute Myeloid Leukemia Cell Line Panel: Human AML cell lines, AML-193, F36-P, GDM-1, HL-60, HNT-34, Kasumi-1, Kasumi-3, KG-1, KG-1a, ML-2, MOLM-13, MUTZ-8, MV-4-11, NOMO-1, OCI-AML2, OCI-AML3, SIG-M5, TF-1, THP-1, and UT-7 were obtained from American Type Culture Collection (ATCC; Manassas, Va.) and Deutsche Sammlung von Mikroorganismen und Zellkulturen (DSMZ) (Germany) cell banks. The AML panel includes cell line(s) from each FAB classification (M0-M7) (Table 7).
Cell Culture Conditions: Cell lines were maintained in growth media containing 20% fetal bovine serum (FBS) (Hyclone Cat no. SH30910.03, Lot no. AZF188864; Corning REFno. 35-010-CV, Lot no. 35010124) supplemented with or without 10 ng/mL human recombinant granulocyte-macrophage colony stimulating factor (Sigma-Aldrich Cat no. SRP3050) (Table 8). Medium was purchased from ATCC (Cat no. 30-2001, 30-2002, 30-2003, 30-2005) and Gibco (REF no. 12561-056). Human recombinant granulocyte macrophage colony stimulating factor (GM-CSF) was expressed in Escherichia coli. The cell doubling times for each cell line were provided by ATCC and DSMZ. Cells were maintained in humidified incubators at 5% carbon dioxide (CO2). All cell lines were acclimated to Eagle's minimal essential medium (EMEM)+20% FBS with or without GM-CSF over 2 to 4 weeks prior to live cell imaging using IncuCyte Zoom (Essen Biosciences). The use of EMEM was necessary to eliminate background fluorescence caused by riboflavin in most media.
Incubation of Cell Cultures with Compound 1: Compound 1 was provided for studies by Celgene chemistry group at a stock concentration of 30 mM in 20 μL dimethyl sulfoxide (DMSO) frozen. Costar 96-well cell culture plates (Corning Cat no. 3595) were coated with 100 μL of 10 µg/mL fibronectin (Sigma-Aldrich Cat no. F1141) for 4 hours at 37° C. and immediately used or refrigerated overnight for later use. Cells (3000 to 6000 cells) were plated in growth medi in fibronectin-coated 96-well plates and incubated for a minimum of a few hours to overnight. Cells were incubated with a 12-point concentration response in triplicate with Compound 1 ([…]) including DMSO and Media controls. A 3-fold serial dilution of Compound 1 starting from a concentration of 200 μM in 0.6% DMSO (diluted in Media) was performed. For most sensitive cell lines, a 3-fold serial dilution of Compound 1 starting from a concentration of 20 μM in 0.6% DMSO (diluted in media) was performed. A volume of 5 μL or 10 μL for each dilution was added to 100 μL or 200 μL cells, respectively (0.3% DMSO final) and incubated for live cell imaging.
Live Cell Imaging on IncuCyte Zoom: Following incubation of cells with Compound 1, diluted Caspase 3/7 reagent (Essen Biosciences Cat no. 4440) is added to each well. The Caspase-3/7 reagent couples the activated caspase-3/7 recognition motif (DEVD) to NucView™488, a DNA intercalating dye. The cleavage of substrate by activated caspase-3/7 results in the release of the DNA dye and green fluorescent staining of nuclear DNA. This allows imaging of cells undergoing caspase-3/7 mediated apoptosis over time. Caspase-3/7 activation was quantified using the IncuCyte™ ZOOM basic analyzer. Red-labeled cell lines were also imaged over time using the IncuCyte™ ZOOM basic analyzer, for determination of both cell doubling time and Compound 1 effect on cell viability. Experiments were performed at least two times in each cell line.
Next, a 4 parameter log-logistic model was used to determine relative EC50 at each time point by the ‘drm’ function from the R ‘drc’ package (Ritz C, Streibig J C. Bioassay Analysis using R. J. Statist. Software 2005; 12(5):1-22). Goodness of fit was measured by R squared (coefficient of determination or the amount of variation explained by the model fit) of ≥80%, and EC50 parameter was assessed by having a ratio of standard error to the parameter of ≤40%, and the presence of at least one concentration point above and below the reported EC50. […]

MDS progenitor cells = experiment: MDS colony forming assay in Methocult; assay type: cell-based, human; details: 24 hours exposure; compared with liquid culture
Method: Methods. The effect of Compound 1 on high risk MDS samples was measured in an in vitro liquid culture as well as by colony assays in order to better define its effect on stem/progenitor cells. Bone marrow mononuclear cells (BMMCs) from high risk MDS patients were cultured in vitro in CellGro medium (GellGenix) supplemented with hLDL (40 μg/mL), SCF (50 ng/mL), FLT3 […] (50 ng/mL), IL-3 (10 ng/mL), IL-6 (25 ng/mL) and TPO (100 ng/mL), all from Peprotech. During culture, cells were exposed to different concentrations of Compound 1 (37, 111, 333 and 1000 nM) or DMSO control. After 24 hours, cells were washed twice to remove compound and maintained in culture up to one week, performing viable cell counting on days 1, 3 and 7. Just after compound washout, […] per condition were collected for colony forming assays and another […] were stained for intracellular flow cytometry.
For colony forming assays cells were seeded in Methocult media (Stem Cell Technologies), incubated at 37° C. during 14 days and scored by automatic counting using StemVision (Stem Cell Technologies).

O=C1CCC(N2Cc3cc(CNC(=O)C(F)(F)c4ccc(Cl)cc4)ccc3C2=O)C(=O)N1 (centres unmarked) [Compound 1, 2-(4-chlorophenyl)-N-((2-(2,6-dioxopiperidin-3-yl)-1-oxoisoindolin-5-yl)methyl)-2,2-difluoroacetamide]
EC50 (AML cell lines; 12 h, 8 most sensitive cell lines (5 lines with curve fits), 12 hours, read-out: apoptosis EC50 12hr (range)): 0.053 to 0.227 µM
EC50 (AML cell lines; 24 h, 14 of 20 cell lines with successful curve fits, 24 hours, read-out: apoptosis EC50 24hr (range)): 0.007 to 0.916 µM
EC50 (AML cell lines; 48 h, eight highly sensitive cell lines (HNT-34, Kasumi-3, HL-60, ML-2, MV4-11, KG-1, MUTZ-8, GDM-1), 48 hours, read-out: apoptosis EC50 48hr (range)): 0.004 to 0.049 µM
EC50 (AML cell lines; 48 h, eight highly sensitive cell lines, 48 hours, read-out: apoptosis average EC50 48hr): 0.027 µM
EC50 (AML cell lines; 48 h, four least sensitive cell lines (UT-7, F36-P, MOLM-13, OCI-AML3), 48 hours, read-out: apoptosis EC50 48hr (range)): 0.231 to 0.896 µM
EC50 (AML cell lines; 48 h, four least sensitive cell lines (UT-7, F36-P, MOLM-13, OCI-AML3), 48 hours, read-out: apoptosis average EC50 48hr): 0.458 µM
EC50 (AML cell lines; 48 h, seven moderately sensitive cell lines (OCI-AML-2, AML-193, SIG-M5, Kasumi-1, TF-1, Nomo-1, KG-1a), 48 hours, read-out: apoptosis EC50 48hr (range)): 0.081 to 0.145 µM
EC50 (AML cell lines; 48 h, seven moderately sensitive cell lines, 48 hours, read-out: apoptosis average EC50 48hr): 0.114 µM
EC50 (AML cell lines; 72 h, AML cell panel, 72 hours, read-out: apoptosis EC50 72hr (range)): 0.003 to 0.971 µM
EC50 (AML cell lines; 96 h, AML cell panel, 96 hours, read-out: apoptosis EC50 96hr (range)): 0.001 to 0.418 µM
effect on MDS progenitor cells in colony forming assays (MDS progenitor cells): more acute
